Tests used:
[1] = system: forearms of a human volunteer; assay: Further human vasoconstriction testing, Method 1; format: in vivo; note: key: 0: normal skin; 1: slight pallor of indistinct outline; 2: pallor with at least two corners outlined; 3: even pallor with a clear outline of the application sites; 4: very intense pallor
Method in brief: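 Each mixture, 50 μL in ethanol, was loaded onto circular 8 mm patches. Once the ethanol had evaporated, the patches were placed on a human volunteer's forearms under a water-impervious film for 3 hr. After the patches were removed, vasoconstriction was scored at intervals from 0 (normal skin) to 4 (very intense pallor). The same individual received all tests, run 2-4 times per compound.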

[2] = biological target: T1, rat lung glucocorticoid receptor (Rattus norvegicus, UniProt P06536); assay: Receptor binding studies ([3H]triamcinolone acetonide displacement); design: Receptor binding affinity: scale not given here; details: for RBA: further receptor binding studies (Table X), dexamethasone = 100, * mean ± SE of 3-5 results; for IC50: rat lung cytosol, 10 nM [3H]triamcinolone acetonide, 2 h, 24° C., read-out: IC50; for IC50 / Relative binding affinity (RBA): with Δ1-cortienic acid; for Relative binding affinity (RBA): with respect to dexamethasone (RBA = 100)
T1 construct: Immediately after resection of the lungs, the tissue was frozen in ice; The cytosol was prepared; from tissue; host or cells: lung cytosol of adrenalectomized male Sprague-Dawley rats
T1 sequence (P06536 1-795): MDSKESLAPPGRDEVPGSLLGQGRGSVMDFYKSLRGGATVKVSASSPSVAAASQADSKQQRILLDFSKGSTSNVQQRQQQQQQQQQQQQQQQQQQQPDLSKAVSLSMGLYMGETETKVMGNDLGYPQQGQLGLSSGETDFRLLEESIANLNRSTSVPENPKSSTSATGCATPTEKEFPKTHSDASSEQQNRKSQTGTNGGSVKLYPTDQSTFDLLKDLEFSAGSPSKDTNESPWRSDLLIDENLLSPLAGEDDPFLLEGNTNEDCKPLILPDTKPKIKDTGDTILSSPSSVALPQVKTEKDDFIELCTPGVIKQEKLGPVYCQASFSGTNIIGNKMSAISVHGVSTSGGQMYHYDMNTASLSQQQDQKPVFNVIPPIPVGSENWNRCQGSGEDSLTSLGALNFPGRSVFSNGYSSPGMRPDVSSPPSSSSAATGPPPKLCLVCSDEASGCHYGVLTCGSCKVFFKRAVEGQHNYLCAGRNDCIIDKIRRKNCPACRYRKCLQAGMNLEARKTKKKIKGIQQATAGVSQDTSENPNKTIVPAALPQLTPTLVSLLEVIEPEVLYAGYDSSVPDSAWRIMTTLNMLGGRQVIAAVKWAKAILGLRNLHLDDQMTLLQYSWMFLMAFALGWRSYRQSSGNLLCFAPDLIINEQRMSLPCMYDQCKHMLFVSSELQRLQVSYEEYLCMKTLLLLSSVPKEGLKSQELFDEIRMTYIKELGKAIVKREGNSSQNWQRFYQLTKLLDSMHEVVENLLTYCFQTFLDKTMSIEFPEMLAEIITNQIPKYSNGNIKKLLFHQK
Experimental: Male Sprague-Dawley rats, each weighing 150 to 200 g, were used 6 days after adrenalectomy. Rats were sacrificed by decapitation. Immediately after resection of the lungs, the tissue was frozen in ice. […] Portions (5 ml) of the cytosol were frozen in liquid nitrogen and stored at -80° C.
The cytosol was thawed in a water bath and diluted with 1 part of incubation buffer containing a 15 mM concentration of diisopropyl fluorophosphate. […] After a 2 hour incubation period at room temperature (24° C.), the unbound steroid was removed by addition of a 2% suspension of activated charcoal in incubation buffer (400 μL). The mixture was incubated for 5 minutes at room temperature and then was centrifuged at about 10,000 g for 3 minutes in the microcentrifuge. The radioactivity (cpm) in the supernatant (400 μL) was determined by liquid scintillation counting.
The data is fitted to the following logistic function:
B=T-T * C^N /(C^N +IC50^N)+NS,
where B=CPM in the presence of competitor, T=CPM in the absence of competitor, C=competitor concentration, N=Hill slope factor, and NS=cpm under non-specific binding conditions.
For the representative compound of the invention B, receptor binding affinity was investigated with and without Δ^1 -cortienic acid in the incubation solution to study the effect of Δ^1 -cortienic acid on the receptor binding.
Further studies to evaluate the relative receptor binding affinities of compounds of the invention, other compounds of formula (VII) hereinabove and well-known anti-inflammatory steroids were undertaken, using the methods described in the RECEPTOR BINDING STUDIES set forth above. […] For comparison purposes, the following compounds having formula (VII) above were also tested: […]

[3] = in vitro; format: in vitro ADME; details: rat, lung cytosol
Experimental: To determine that the compounds of the invention can be stable during the incubation period, the test compounds A, B, C, and D were investigated for their stabilities at the incubation conditions, which are room temperature and 2 hours, for receptor binding studies. The frozen cytosol which was made for the receptor binding study was thawed in a water bath and diluted with 1 part of incubation buffer (10 mM Tris/HCl, 10 mM sodium molybdate, and 2 mM 1,4-dithiothreitol) containing a 15 mM concentration of enzyme inhibitor, diisopropyl fluorophosphate. Portions (560 μL) of the diluted cytosol were added to centrifuge tubes containing 80 μL portions of blank incubation buffer instead of volume of tracer ([^3 H]triamcinolone acetonide) which would be used in the receptor binding study (RBS), 80 μL of solution of a Δ^1 -cortienic acid (0.1 mM) in buffer (the final concentration of Δ^1 -cortienic acid in the incubation medium was […]), and 80 μL of 100,000 nM of concentrations of test compounds in ethanol to give a final concentration of 10,000 nM. This mixture was kept at room temperature for 2 hours. Samples of 0.1 mL were taken at appropriate time intervals (0, 0.5, 1, 1.5, 2 hours) and were mixed with 0.2 mL of acetonitrile containing 5% DMSO. Each mixture was centrifuged and the supernatant were injected in the HPLC.
Male Sprague-Dawley rats, each weighing 150 to 200 g, were used 6 days after adrenalectomy. Rats were sacrificed by decapitation. Immediately after resection of the lungs, the tissue was frozen in ice. The cytosol was prepared using a slight modification of a previously described method (Dahlberg, 1984); After addition of 6 volumes of ice-cold incubation buffer (10 mM Tris/HCl, 10 mM sodium molybdate, and 2 mM 1,4-dithiothreitol), the tissue was homogenized with the Virtis 45 homogenizer at full speed, for 4 periods of 10 seconds with a 10-second cooling period between each step. The homogenate was centrifuged at 35,000 g for 1 hour at 4° C. in a Beckman ultracentrifuge L8-70M equipped with a T170 rotor. Portions (5 ml) of the cytosol were frozen in liquid nitrogen and stored at -80° C.

[4] = 24 Hours, 1 hour re-occlusion at 20-21 hours, 0.01 mM
[5] = 24 Hours, 1 hour re-occlusion at 20-21 hours, 0.05 mM
[6] = 24 Hours, 1 hour re-occlusion at 20-21 hours, 0.1 mM
[7] = 24 Hours, 1 hour re-occlusion at 20-21 hours, 0.5 mM

SMILES | Vasoconstriction activity ([1]; 3 Hours, 0.01 mM) | Vasoconstriction activity ([1]; 3 Hours, 0.05 mM) | Vasoconstriction activity ([1]; 3 Hours, 0.1 mM) | Vasoconstriction activity ([1]; 3 Hours, 0.5 mM) | Vasoconstriction activity ([1]; 3 Hours, 1 mM) | Vasoconstriction activity ([1]; 3 Hours, 5 mM) | Vasoconstriction activity ([1]; 3 Hours, 10 mM) | Vasoconstriction activity ([1]; 20 Hours, 0.01 mM) | Vasoconstriction activity ([1]; 20 Hours, 0.05 mM) | Vasoconstriction activity ([1]; 20 Hours, 0.1 mM) | Vasoconstriction activity ([1]; 20 Hours, 0.5 mM) | Vasoconstriction activity ([1]; 20 Hours, 1 mM) | Vasoconstriction activity ([1]; 20 Hours, 5 mM) | Vasoconstriction activity ([1]; 20 Hours, 10 mM) | Vasoconstriction activity [1, 4] | Vasoconstriction activity [1, 5] | Vasoconstriction activity [1, 6] | RBA [2] | remaining at 2 h [3] [%] | Relative binding affinity (RBA) [2] | also measured
CCCCC(=O)O[C@]1(C(=O)CO)[C@@H](C)C[C@H]2[C@@H]3CCC4=CC(=O)C=C[C@]4(C)[C@@]3(F)[C@@H](O)C[C@@]21C [Betamethasone 17-valerate, reference compound] | 0 | 1 | 1 | 2 | 3 | 3 | 4 | 0 | 1 | 1 | 1 | 1 | 1 | 2 | 1 | 1 | 2 | 1742 ± 130 |  |  | Vasoconstriction activity [1, 7]: 2
COC(=O)[C@@]1(OC(=O)C(Cl)Cl)CC[C@H]2[C@@H]3CCC4=CC(=O)C=C[C@]4(C)[C@H]3[C@@H](O)C[C@@]21C [Compound A, Methyl 17α-dichloroacetoxy-11β-hydroxyandrosta-1,4-dien-3-one-17β-carboxylate] |  |  |  |  |  |  | 4 |  |  |  |  |  |  | 2 |  |  |  | 165 | 75 | 165 | remaining at 2 h, 10 µM [3]: 75.1%; IC50 [2]: 0.0495 µM
CCOC(=O)[C@@]1(OC(=O)C(Cl)Cl)CC[C@H]2[C@@H]3CCC4=CC(=O)C=C[C@]4(C)[C@H]3[C@@H](O)C[C@@]21C [Compound B, Ethyl 17α-dichloroacetoxy-11β-hydroxyandrosta-1,4-dien-3-one-17β-carboxylate] | 0 | 1 | 1 | 2 | 3 | 3 | 4 | 0 | 0 | 1 | 1 | 1 | 1 | 2 | 1 | 1 | 2 | 222 ± 16 | 75 | 204 | Vasoconstriction activity [1, 7]: 2; remaining at 2 h, 10 µM [3]: 100%; Receptor binding affinity ([2]; With Δ1-cortienic acid (Table IX)): 204; Receptor binding affinity ([2]; Without Δ1-cortienic acid (Table IX)): 181; IC50 [2]: 0.0401 µM
CC(C)OC(=O)[C@@]1(OC(=O)C(Cl)Cl)CC[C@H]2[C@@H]3CCC4=CC(=O)C=C[C@]4(C)[C@H]3[C@@H](O)C[C@@]21C [Compound C, Isopropyl 17α-dichloroacetoxy-11β-hydroxyandrosta-1,4-dien-3-one-17β-carboxylate] |  |  |  |  |  |  | 4 |  |  |  |  |  |  | 1 |  |  |  | 117 | > 90 | 117 | remaining at 2 h, 10 µM [3]: 100%; IC50 [2]: 0.0698 µM
C[C@]12C=CC(=O)C=C1CC[C@@H]1[C@@H]2[C@@H](O)C[C@@]2(C)[C@H]1CC[C@]2(OC(=O)C(Cl)Cl)C(=O)OCCl [Compound D, Chloromethyl 17α-dichloroacetoxy-11β-hydroxyandrosta-1,4-dien-3-one-17β-carboxylate] |  |  |  |  |  |  | 4 |  |  |  |  |  |  | 1 |  |  |  | 684 | 70 | 684 | remaining at 2 h, 10 µM [3]: 70.6%; IC50 [2]: 0.0119 µM
COC(=O)[C@@]1(OC(=O)C(Cl)Cl)[C@H](C)C[C@H]2[C@@H]3CCC4=CC(=O)C=C[C@]4(C)[C@@]3(F)[C@@H](O)C[C@@]21C [Compound I, methyl 17α-dichloroacetoxy-9α-fluoro-11β-hydroxy-16α-methylandrosta-1,4-dien-3-one-17β-carboxylate] | 1 | 2 | 2 | 3 | 4 | 4 | 4 | 0 | 1 | 1 | 1 | 1 | 2 |  | 1 | 2 | 3 | 1745 ± 185 | > 90 | 495 | Vasoconstriction activity [1, 7]: 3
CCOC(=O)[C@@]1(OC(=O)C(Cl)Cl)[C@H](C)C[C@H]2[C@@H]3CCC4=CC(=O)C=C[C@]4(C)[C@@]3(F)[C@@H](O)C[C@@]21C [J, ethyl 17α-dichloroacetoxy-9α-fluoro-11β-hydroxy-16α-methylandrosta-1,4-dien-3-one-17β-carboxylate] | 0 | 1 | 2 | 2 | 3 | 3 | 4 | 0 | 0 | 0 | 1 | 1 | 1 | 2 | 1 | 1 | 2 | 687 ± 49 | > 90 |  | Vasoconstriction activity [1, 7]: 2

Reference: patent US5981517A, “Androstene derivatives” (priority 1997, dated 1999)
